Test results: US20180371044A1, “PEPTIDOMIMETIC MACROCYCLES” (Aileron Therapeutics, Inc., priority 2015, published 2018)
Where a SMILES comes first, the peptide text is derived from it. Bridges are numbered along the chain shown (N, C = ends). [ ]: non-standard residue; d: D form. NiPrTyr = CC(C)N[C@@H](Cc1ccc(O)cc1)C(=O)O; NMeY = CN[C@@H](Cc1ccc(O)cc1)C(=O)O; R8 = C=CCCCCCC[C@@](C)(N)C(=O)O; Cit = NC(=O)NCCC[C@H](N)C(=O)O; S5 = C=CCCC[C@](C)(N)C(=O)O; Nle = CCCC[C@H](N)C(=O)O; Abu = CC[C@H](N)C(=O)O; Aib = CC(C)(N)C(=O)O

What follows are compounds tested against T1, human GHRH receptor (hGHRHR) (Homo sapiens, UniProt Q02643) (assay: GHRHR agonism measured by cAMP (HTRF) in human 293 cells expressing hGHRHR). Conditions: 30 min at RT.
T1 construct: expressed in transfected cells; host or cells: Human 293 cells
T1 sequence (Q02643 23-423): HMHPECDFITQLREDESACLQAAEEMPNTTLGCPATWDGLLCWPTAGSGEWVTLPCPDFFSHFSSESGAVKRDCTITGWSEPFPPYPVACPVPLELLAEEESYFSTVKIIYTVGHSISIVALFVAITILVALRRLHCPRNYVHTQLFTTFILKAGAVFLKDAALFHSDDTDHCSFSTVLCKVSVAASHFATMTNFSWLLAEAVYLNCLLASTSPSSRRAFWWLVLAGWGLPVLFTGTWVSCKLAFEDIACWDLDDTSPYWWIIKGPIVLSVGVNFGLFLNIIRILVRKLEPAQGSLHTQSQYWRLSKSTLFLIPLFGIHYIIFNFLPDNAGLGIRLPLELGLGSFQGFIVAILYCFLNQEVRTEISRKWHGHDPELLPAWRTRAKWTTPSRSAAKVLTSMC
Format: cell-based
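Note: receptor expressed transiently or stably, cells stimulated in serum-free medium, EC50 from a non-linear dose-response fit, maximal response defined by reference GHRH stimulation.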

| Compound | EC50 |
| --- | --- |
| CCCC[C@H](NC(=O)[C@@H](NC(=O)[C@]1(C)CCCC=CCCC[C@](C)(NC(=O)[C@H](CCCNC(=N)N)NC(=O)[C@H](C)NC(=O)[C@H](CO)NC(=O)[C@H](CC(C)C)NC(=O)[C@H](CCC(N)=O)NC(=O)[C@H](C)NC(=O)[C@H](CC(C)C)NC(=O)[C@@H](NC(=O)[C@H](CCCCN)NC(=O)[C@H](CCCNC(=N)N)NC(=O)[C@H](Cc2ccc(O)cc2)NC(=O)[C@H](CO)NC(=O)[C@H](C)NC(=O)[C@@H](NC(=O)[C@H](Cc2ccccc2)NC(=O)[C@@H](NC(=O)[C@H](C)NC(=O)[C@H](CC(=O)O)NC(=O)[C@H](C)NC(=O)[C@H](Cc2ccc(O)cc2)NC)[C@@H](C)CC)[C@@H](C)O)C(C)C)C(=O)N[C@@H](C)C(=O)N[C@@H](CC(C)C)C(=O)N[C@@H](CCC(N)=O)C(=O)N1)[C@@H](C)CC)C(=O)N[C@@H](CO)C(=O)N[C@@H](CCCNC(=N)N)C(N)=O [SP-18] (H-[NMeY]ADAIFTASYRKVLAQLSAR[S5]ALQ[S5]I[Nle]SR-NH2; staple 21-25) | 10 to 25 nM |
| CCCC[C@H](NC(=O)[C@@H](NC(=O)[C@H](CC(=O)O)NC(=O)[C@H](CCC(N)=O)NC(=O)[C@H](CC(C)C)NC(=O)[C@H](C)NC(=O)[C@H](CCCCN)NC(=O)[C@H](CCCNC(=N)N)NC(=O)[C@]1(C)CCCC=CCCCCCC[C@@](C)(NC(=O)[C@H](CCCNC(=N)N)NC(=O)[C@H](Cc2ccc(O)cc2)NC(=O)[C@H](CO)NC(=O)[C@H](C)NC(=O)[C@@H](NC(=O)[C@H](Cc2ccccc2)NC(=O)[C@@H](NC(=O)[C@H](C)NC(=O)[C@H](CC(=O)O)NC(=O)[C@H](C)NC(=O)[C@H](Cc2ccc(O)cc2)NC)[C@@H](C)CC)[C@@H](C)O)C(=O)N[C@@H](C(C)C)C(=O)N[C@@H](CC(C)C)C(=O)N[C@@H](C)C(=O)N[C@@H](CCC(N)=O)C(=O)N[C@@H](CC(C)C)C(=O)N[C@@H](CO)C(=O)N1)[C@@H](C)CC)C(=O)N[C@@H](CO)C(N)=O [SP-60] (H-[NMeY]ADAIFTASYR[R8]VLAQLS[S5]RKALQDI[Nle]S-NH2; staple 12-19) | 25 to 50 nM |
| CCCC[C@H](NC(=O)[C@@H](NC(=O)[C@H](CC(=O)O)NC(=O)[C@H](CCC(N)=O)NC(=O)[C@H](CC(C)C)NC(=O)[C@H](C)NC(=O)[C@H](CCCCN)NC(=O)[C@H](CCCNC(N)=O)NC(=O)[C@H](C)NC(=O)[C@H](CO)NC(=O)[C@H](CC(C)C)NC(=O)[C@H](CCC(N)=O)NC(=O)[C@H](C)NC(=O)[C@H](CC(C)C)NC(=O)[C@@H](NC(=O)[C@H](CCCCN)NC(=O)[C@H](CCCNC(=N)N)NC(=O)[C@H](Cc1ccc(O)cc1)NC(=O)[C@H](CO)NC(=O)[C@H](C)NC(=O)[C@@H](NC(=O)[C@H](Cc1ccccc1)NC(=O)[C@@H](NC(=O)[C@H](C)NC(=O)[C@H](CC(=O)O)NC(=O)[C@H](C)NC(=O)[C@H](Cc1ccc(O)cc1)NC)[C@@H](C)CC)[C@@H](C)O)C(C)C)[C@@H](C)CC)C(=O)N[C@@H](CO)C(=O)N[C@@H](CCCNC(=N)N)C(N)=O [SP-48] (H-[NMeY]ADAIFTASYRKVLAQLSA[Cit]KALQDI[Nle]SR-NH2) | 1 to 10 nM |
| CCCC[C@H](NC(=O)[C@@H](NC(=O)[C@H](CC(=O)O)NC(=O)C(C)(C)NC(=O)[C@H](CC(C)C)NC(=O)[C@H](C)NC(=O)[C@H](CCCCN)NC(=O)[C@H](CCCNC(=N)N)NC(=O)[C@H](C)NC(=O)[C@H](CO)NC(=O)[C@H](CC(C)C)NC(=O)[C@H](CCC(N)=O)NC(=O)[C@H](C)NC(=O)[C@H](CC(C)C)NC(=O)[C@@H](NC(=O)[C@H](CCCCN)NC(=O)[C@H](CCCNC(=N)N)NC(=O)[C@H](Cc1ccc(O)cc1)NC(=O)[C@H](CO)NC(=O)C(C)(C)NC(=O)[C@@H](NC(=O)[C@H](Cc1ccccc1)NC(=O)[C@@H](NC(=O)[C@H](C)NC(=O)[C@H](CC(=O)O)NC(=O)[C@H](C)NC(=O)[C@H](Cc1ccc(O)cc1)NC)[C@@H](C)CC)[C@@H](C)O)C(C)C)[C@@H](C)CC)C(=O)N[C@@H](CO)C(=O)N[C@@H](CCCNC(=N)N)C(N)=O [SP-53] (H-[NMeY]ADAIFT[Aib]SYRKVLAQLSARKAL[Aib]DI[Nle]SR-NH2) | 1 to 10 nM |
| CCCC[C@H](NC(=O)[C@@H](NC(=O)[C@H](CC(=O)O)NC(=O)[C@H](CCC(N)=O)NC(=O)[C@H](CC(C)C)NC(=O)[C@H](C)NC(=O)[C@H](CCCCN)NC(=O)[C@H](CCCNC(=N)N)NC(=O)[C@H](C)NC(=O)[C@H](CO)NC(=O)[C@H](CC(C)C)NC(=O)[C@H](CCC(N)=O)NC(=O)[C@H](C)NC(=O)[C@H](CC(C)C)NC(=O)[C@@H](NC(=O)[C@]1(C)CCCC=CCCC[C@](C)(NC(=O)[C@@H](NC(=O)[C@H](Cc2ccccc2)NC(=O)[C@@H](NC(=O)[C@H](C)NC(=O)[C@H](CC(=O)O)NC(=O)[C@H](C)NC(=O)[C@H](Cc2ccc(O)cc2)NC)[C@@H](C)CC)[C@@H](C)O)C(=O)N[C@@H](CO)C(=O)N[C@@H](Cc2ccc(O)cc2)C(=O)N[C@@H](CCCNC(=N)N)C(=O)N1)C(C)C)[C@@H](C)CC)C(=O)N[C@@H](CO)C(=O)N[C@@H](CCCNC(=N)N)C(N)=O [SP-9] (H-[NMeY]ADAIFT[S5]SYR[S5]VLAQLSARKALQDI[Nle]SR-NH2; staple 8-12) | 1 to 10 nM |

The remaining lines, values ahead:

| EC50 | Compound |
| --- | --- |
| 1 to 10 nM | CCCC[C@H](NC(=O)[C@@H](NC(=O)[C@H](CC(=O)O)NC(=O)[C@H](CCC(N)=O)NC(=O)[C@H](CC(C)C)NC(=O)C(C)(C)NC(=O)[C@H](CCCCN)NC(=O)[C@H](CCCNC(=N)N)NC(=O)[C@H](C)NC(=O)[C@H](CO)NC(=O)[C@H](CC(C)C)NC(=O)[C@H](CCC(N)=O)NC(=O)[C@H](C)NC(=O)[C@H](CC(C)C)NC(=O)[C@@H](NC(=O)[C@H](CCCCN)NC(=O)[C@H](CCCNC(=N)N)NC(=O)[C@H](Cc1ccc(O)cc1)NC(=O)[C@H](CO)NC(=O)C(C)(C)NC(=O)[C@@H](NC(=O)[C@H](Cc1ccccc1)NC(=O)[C@@H](NC(=O)[C@H](C)NC(=O)[C@H](CC(=O)O)NC(=O)[C@H](C)NC(=O)[C@H](Cc1ccc(O)cc1)NC)[C@@H](C)CC)[C@@H](C)O)C(C)C)[C@@H](C)CC)C(=O)N[C@@H](CO)C(=O)N[C@@H](CCCNC(=N)N)C(N)=O [SP-52] (H-[NMeY]ADAIFT[Aib]SYRKVLAQLSARK[Aib]LQDI[Nle]SR-NH2) |
| 1 to 10 nM | CCCC[C@H](NC(=O)[C@@H](NC(=O)[C@H](CC(=O)O)NC(=O)[C@H](CCC(N)=O)NC(=O)[C@H](CC(C)C)NC(=O)[C@H](C)NC(=O)[C@H](CCCCN)NC(=O)[C@H](CCCNC(=N)N)NC(=O)[C@H](C)NC(=O)[C@H](CO)NC(=O)[C@H](CC(C)C)NC(=O)[C@H](CCC(N)=O)NC(=O)[C@H](CC)NC(=O)[C@H](CC(C)C)NC(=O)[C@@H](NC(=O)[C@H](CCCCN)NC(=O)[C@H](CCCNC(=N)N)NC(=O)[C@H](Cc1ccc(O)cc1)NC(=O)[C@H](CO)NC(=O)[C@H](C)NC(=O)[C@@H](NC(=O)[C@H](Cc1ccccc1)NC(=O)[C@@H](NC(=O)[C@H](C)NC(=O)[C@H](CC(=O)O)NC(=O)[C@H](C)NC(=O)[C@H](Cc1ccc(O)cc1)NC)[C@@H](C)CC)[C@@H](C)O)C(C)C)[C@@H](C)CC)C(=O)N[C@@H](CO)C(=O)N[C@@H](CCCNC(=N)N)C(N)=O [SP-44] (H-[NMeY]ADAIFTASYRKVL[Abu]QLSARKALQDI[Nle]SR-NH2) |
| ≤ 1 nM | CCCC[C@H](NC(=O)[C@@H](NC(=O)[C@H](CC(=O)O)NC(=O)[C@H](CCC(N)=O)NC(=O)[C@H](CC(C)C)NC(=O)[C@H](C)NC(=O)[C@H](CCCCN)NC(=O)[C@H](CCCNC(=N)N)NC(=O)[C@H](C)NC(=O)[C@H](CO)NC(=O)[C@H](CC(C)C)NC(=O)[C@H](CCC(N)=O)NC(=O)[C@H](C)NC(=O)[C@H](CC(C)C)NC(=O)[C@@H](NC(=O)[C@H](CCCCN)NC(=O)[C@H](CCCNC(=N)N)NC(=O)[C@H](Cc1ccc(O)cc1)NC(=O)[C@H](CO)NC(=O)[C@H](C)NC(=O)[C@@H](NC(=O)[C@H](Cc1ccccc1)NC(=O)[C@@H](NC(=O)[C@H](C)NC(=O)[C@H](CC(=O)O)NC(=O)[C@@H](C)NC(=O)[C@@H](N)Cc1ccc(O)cc1)[C@@H](C)CC)[C@@H](C)O)C(C)C)[C@@H](C)CC)C(=O)N[C@@H](CO)C(=O)N[C@@H](CCCNC(=N)N)C(N)=O [SP-46] (H-Y[dA]DAIFTASYRKVLAQLSARKALQDI[Nle]SR-NH2) |
| 1 to 10 nM | CCCC[C@H](NC(=O)[C@@H](NC(=O)[C@H](CC(=O)O)NC(=O)[C@H](CCC(N)=O)NC(=O)[C@H](CC(C)C)NC(=O)[C@H](C)NC(=O)[C@H](CCCCN)NC(=O)[C@H](CCCNC(=N)N)NC(=O)[C@H](C)NC(=O)[C@H](CO)NC(=O)[C@H](CC(C)C)NC(=O)[C@H](CCC(N)=O)NC(=O)[C@H](C)NC(=O)[C@H](CC(C)C)NC(=O)[C@@H](NC(=O)[C@]1(C)CCCC=CCCCCCC[C@@](C)(NC(=O)[C@H](C)NC(=O)[C@H](CC(=O)O)NC(=O)[C@H](C)NC(=O)[C@H](Cc2ccc(O)cc2)NC)C(=O)N[C@@H](Cc2ccccc2)C(=O)N[C@@H]([C@@H](C)O)C(=O)N[C@@H](C)C(=O)N[C@@H](CO)C(=O)N[C@@H](Cc2ccc(O)cc2)C(=O)N[C@@H](CCCNC(=N)N)C(=O)N1)C(C)C)[C@@H](C)CC)C(=O)N[C@@H](CO)C(=O)N[C@@H](CCCNC(=N)N)C(N)=O [SP-24] (H-[NMeY]ADA[R8]FTASYR[S5]VLAQLSARKALQDI[Nle]SR-NH2; staple 5-12) |
| 1 to 10 nM | CCCC[C@H](NC(=O)[C@@H](NC(=O)[C@H](CC(=O)O)NC(=O)[C@H](CCC(N)=O)NC(=O)[C@H](CC(C)C)NC(=O)[C@H](C)NC(=O)[C@H](CCCCN)NC(=O)[C@H](CCCNC(=N)N)NC(=O)[C@H](C)NC(=O)[C@H](CO)NC(=O)[C@H](CC(C)C)NC(=O)[C@H](CCC(N)=O)NC(=O)[C@H](C)NC(=O)[C@H](CC(C)C)NC(=O)[C@@H](NC(=O)[C@H](CCCCN)NC(=O)[C@H](CCCNC(=N)N)NC(=O)[C@H](Cc1ccc(O)cc1)NC(=O)[C@H](CO)NC(=O)[C@H](C)NC(=O)[C@@H](NC(=O)[C@H](Cc1ccccc1)NC(=O)[C@@H](NC(=O)[C@H](C)NC(=O)[C@H](CC(=O)O)NC(=O)[C@H](C)NC(=O)[C@H](Cc1ccc(O)cc1)NC(C)C)[C@@H](C)CC)[C@@H](C)O)C(C)C)[C@@H](C)CC)C(=O)N[C@@H](CO)C(=O)N[C@@H](CCCNC(=N)N)C(N)=O [SP-37] (H-[NiPrTyr]ADAIFTASYRKVLAQLSARKALQDI[Nle]SR-NH2) |
